Here are results for twelve cell lines from the supplement of paper PMC10307832.

Common to all, as to assay: relative viability (nuclei count vs DMSO), 5 days (fraction); higher = more cells survive
Compound in the test “Everolimus + Pictilisib”: CO[C@H]1C[C@@H]2CC[C@@H](C)[C@@](O)(O2)C(=O)C(=O)N2CCCC[C@H]2C(=O)O[C@H]([C@H](C)C[C@@H]2CC[C@@H](OCCO)[C@H](OC)C2)CC(=O)[C@H](C)/C=C(\C)[C@@H](O)[C@@H](OC)C(=O)[C@H](C)C[C@H](C)/C=C/C=C/C=C/1C [Everolimus] + CS(=O)(=O)N1CCN(Cc2cc3nc(-c4cccc5[nH]ncc45)nc(N4CCOCC4)c3s2)CC1 [Pictilisib] (partner 1 µM)
An outline of the steps: (§1)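 Each reported value is a median over duplicate plates. It expresses relative viability: treated-well nuclei count divided by vehicle-well nuclei count. Lung cancer cell lines in 1536-well plates were dosed by pin tool a day after seeding, alone with one drug or with a fixed anchor-drug dose plus five library-drug doses (not always all listed) in √10 steps, and nuclei were counted after 5 days.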

Compound in the test “Everolimus + Palbociclib”: CO[C@H]1C[C@@H]2CC[C@@H](C)[C@@](O)(O2)C(=O)C(=O)N2CCCC[C@H]2C(=O)O[C@H]([C@H](C)C[C@@H]2CC[C@@H](OCCO)[C@H](OC)C2)CC(=O)[C@H](C)/C=C(\C)[C@@H](O)[C@@H](OC)C(=O)[C@H](C)C[C@H](C)/C=C/C=C/C=C/1C [Everolimus] + CC(=O)c1c(C)c2cnc(Nc3ccc(N4CCNCC4)cn3)nc2n(C2CCCC2)c1=O [Palbociclib] (partner 0.5 µM)
An outline of the steps:
as §1

Compound in the test “Everolimus + Phenformin”: CO[C@H]1C[C@@H]2CC[C@@H](C)[C@@](O)(O2)C(=O)C(=O)N2CCCC[C@H]2C(=O)O[C@H]([C@H](C)C[C@@H]2CC[C@@H](OCCO)[C@H](OC)C2)CC(=O)[C@H](C)/C=C(\C)[C@@H](O)[C@@H](OC)C(=O)[C@H](C)C[C@H](C)/C=C/C=C/C=C/1C [Everolimus] + N=C(N)NC(=N)NCCc1ccccc1 [Phenformin] (partner 250 µM)
Summed up:
as §1

Compound in the test “Everolimus + Decitabine”: CO[C@H]1C[C@@H]2CC[C@@H](C)[C@@](O)(O2)C(=O)C(=O)N2CCCC[C@H]2C(=O)O[C@H]([C@H](C)C[C@@H]2CC[C@@H](OCCO)[C@H](OC)C2)CC(=O)[C@H](C)/C=C(\C)[C@@H](O)[C@@H](OC)C(=O)[C@H](C)C[C@H](C)/C=C/C=C/C=C/1C [Everolimus] + Nc1ncn([C@H]2C[C@H](O)[C@@H](CO)O2)c(=O)n1 [Decitabine] (partner 2 µM)
An outline of the steps: as §1

As to NCI-H1299, the relative viability in the test with Everolimus + Pictilisib (first compound 0.01 µM) came to 0.54; with Everolimus + Pictilisib (first compound 0.03162 µM) it was 0.537; in the test with Everolimus + Pictilisib (first compound 0.1 µM) it was 0.512; with Everolimus + Pictilisib (first compound 0.3162 µM) it was 0.386; with Everolimus + Pictilisib (first compound 1 µM), 0.528.

On to Calu-6, for which the relative viability in the test with Everolimus + Pictilisib (first compound 0.01 µM) was 0.573; in the test with Everolimus + Pictilisib (first compound 0.03162 µM), 0.566; with Everolimus + Pictilisib (first compound 0.1 µM), 0.559; in the test with Everolimus + Pictilisib (first compound 0.3162 µM), 0.527; with Everolimus + Pictilisib (first compound 1 µM) it was 0.592.

LK-2: the relative viability with Everolimus + Palbociclib (first compound 0.01 µM) amounted to 0.536; with Everolimus + Palbociclib (first compound 0.03162 µM), 0.312; with Everolimus + Palbociclib (first compound 0.1 µM) it was 0.321; with Everolimus + Palbociclib (first compound 0.3162 µM), 0.314; with Everolimus + Palbociclib (first compound 1 µM), 0.33; with Everolimus + Pictilisib (first compound 0.01 µM), 0.5. Besides, the relative viability amounted to 0.37 in the test with Everolimus + Pictilisib (first compound 0.1 µM); 0.322 with Everolimus + Pictilisib (first compound 0.3162 µM); 0.386 with Everolimus + Pictilisib (first compound 1 µM); 0.299 with Everolimus + Phenformin (first compound 0.01 µM); 0.154 with Everolimus + Phenformin (first compound 0.1 µM); 0.166 with Everolimus + Phenformin (first compound 0.3162 µM). The relative viability with Everolimus + Phenformin (first compound 1 µM) was 0.233; with Everolimus + Decitabine (first compound 0.01 µM), 0.268; in the test with Everolimus + Decitabine (first compound 0.03162 µM) it was 0.156; with Everolimus + Decitabine (first compound 0.1 µM), 0.19; with Everolimus + Decitabine (first compound 0.3162 µM), 0.194; with Everolimus + Decitabine (first compound 1 µM) it was 0.193.

Consider SW 900, for which the relative viability with Everolimus + Palbociclib (first compound 0.01 µM) worked out at 0.445; in the test with Everolimus + Palbociclib (first compound 0.03162 µM), 0.331; with Everolimus + Palbociclib (first compound 0.1 µM) it was 0.406; with Everolimus + Palbociclib (first compound 0.3162 µM), 0.383; in the test with Everolimus + Palbociclib (first compound 1 µM) it was 0.318; with Everolimus + Phenformin (first compound 0.01 µM), 0.43. Further, the relative viability amounted to 0.492 with Everolimus + Phenformin (first compound 0.03162 µM); 0.371 with Everolimus + Phenformin (first compound 0.1 µM); 0.324 with Everolimus + Phenformin (first compound 0.3162 µM); 0.45 with Everolimus + Phenformin (first compound 1 µM); 0.434 with Everolimus + Decitabine (first compound 0.01 µM); 0.404 in the test with Everolimus + Decitabine (first compound 0.03162 µM). In addition, the relative viability with Everolimus + Decitabine (first compound 0.1 µM) was found to be 0.4; in the test with Everolimus + Decitabine (first compound 0.3162 µM) it was 0.406; with Everolimus + Decitabine (first compound 1 µM), 0.439.

With A549, the relative viability with Everolimus + Pictilisib (first compound 0.01 µM) was 0.16; in the test with Everolimus + Pictilisib (first compound 0.03162 µM), 0.178; with Everolimus + Pictilisib (first compound 0.1 µM), 0.166; in the test with Everolimus + Pictilisib (first compound 0.3162 µM) it was 0.182; in the test with Everolimus + Pictilisib (first compound 1 µM), 0.192; with Everolimus + Phenformin (first compound 0.01 µM), 0.164. Moreover, the relative viability with Everolimus + Phenformin (first compound 0.03162 µM) is 0.122; with Everolimus + Phenformin (first compound 0.1 µM), 0.154; with Everolimus + Phenformin (first compound 0.3162 µM) it was 0.0954; with Everolimus + Phenformin (first compound 1 µM), 0.157; in the test with Everolimus + Decitabine (first compound 0.01 µM), 0.193; in the test with Everolimus + Decitabine (first compound 0.03162 µM) it was 0.194. In addition, the relative viability with Everolimus + Decitabine (first compound 0.1 µM) is 0.179; with Everolimus + Decitabine (first compound 0.3162 µM), 0.174; with Everolimus + Decitabine (first compound 1 µM) it was 0.193.

In the case of NCI-H522, the relative viability with Everolimus + Palbociclib (first compound 0.01 µM) was 0.793; in the test with Everolimus + Palbociclib (first compound 0.03162 µM) it was 0.701; with Everolimus + Palbociclib (first compound 0.1 µM) it was 0.62; with Everolimus + Palbociclib (first compound 0.3162 µM) it was 0.603; with Everolimus + Palbociclib (first compound 1 µM), 0.597; with Everolimus + Phenformin (first compound 0.01 µM), 0.588. Moreover, the relative viability with Everolimus + Phenformin (first compound 0.03162 µM) was 0.527; in the test with Everolimus + Phenformin (first compound 0.1 µM), 0.549; with Everolimus + Phenformin (first compound 0.3162 µM), 0.51; with Everolimus + Phenformin (first compound 1 µM), 0.503; with Everolimus + Decitabine (first compound 0.01 µM), 0.594; with Everolimus + Decitabine (first compound 0.03162 µM), 0.677. Also, the relative viability with Everolimus + Decitabine (first compound 0.1 µM) was 0.517; with Everolimus + Decitabine (first compound 0.3162 µM), 0.684; in the test with Everolimus + Decitabine (first compound 1 µM), 0.537.

On to NCI-H596, for which the relative viability turned out to be 0.313 with Everolimus + Pictilisib (first compound 0.01 µM); 0.337 with Everolimus + Pictilisib (first compound 0.03162 µM); 0.348 in the test with Everolimus + Pictilisib (first compound 0.1 µM); 0.354 with Everolimus + Pictilisib (first compound 0.3162 µM); 0.333 with Everolimus + Pictilisib (first compound 1 µM); 0.494 with Everolimus + Phenformin (first compound 0.01 µM). For the same cell line, the relative viability turned out to be 0.505 with Everolimus + Phenformin (first compound 0.03162 µM); 0.396 with Everolimus + Phenformin (first compound 0.1 µM); 0.513 with Everolimus + Phenformin (first compound 0.3162 µM); 0.554 with Everolimus + Phenformin (first compound 1 µM); 0.761 with Everolimus + Decitabine (first compound 0.01 µM); 0.595 with Everolimus + Decitabine (first compound 0.03162 µM). The relative viability in the test with Everolimus + Decitabine (first compound 0.1 µM) was determined as 0.739; in the test with Everolimus + Decitabine (first compound 0.3162 µM), 0.69; with Everolimus + Decitabine (first compound 1 µM), 0.605.

As for IA-LM, the relative viability in the test with Everolimus + Pictilisib (first compound 0.01 µM) amounted to 0.211; with Everolimus + Pictilisib (first compound 0.03162 µM), 0.162; with Everolimus + Pictilisib (first compound 0.1 µM), 0.137; with Everolimus + Pictilisib (first compound 0.3162 µM) it was 0.158; with Everolimus + Pictilisib (first compound 1 µM) it was 0.104.

For NCI-H1563, the relative viability with Everolimus + Pictilisib (first compound 0.01 µM) stood at 0.664; with Everolimus + Pictilisib (first compound 0.03162 µM), 0.672; with Everolimus + Pictilisib (first compound 0.1 µM), 0.632; in the test with Everolimus + Pictilisib (first compound 0.3162 µM) it was 0.676; with Everolimus + Pictilisib (first compound 1 µM), 0.646; in the test with Everolimus + Phenformin (first compound 0.01 µM), 0.658. The relative viability with Everolimus + Phenformin (first compound 0.03162 µM) is 0.661; with Everolimus + Phenformin (first compound 0.1 µM), 0.657; in the test with Everolimus + Phenformin (first compound 0.3162 µM) it was 0.657; with Everolimus + Phenformin (first compound 1 µM), 0.592.

As to NCI-H1648, the relative viability with Everolimus + Palbociclib (first compound 0.01 µM) was 0.257; with Everolimus + Palbociclib (first compound 0.03162 µM) it was 0.21; with Everolimus + Palbociclib (first compound 0.1 µM) it was 0.259; in the test with Everolimus + Palbociclib (first compound 0.3162 µM), 0.22; with Everolimus + Palbociclib (first compound 1 µM) it was 0.222; with Everolimus + Decitabine (first compound 0.01 µM), 0.484. Also, the relative viability with Everolimus + Decitabine (first compound 0.03162 µM) was found to be 0.423; with Everolimus + Decitabine (first compound 0.1 µM), 0.383; with Everolimus + Decitabine (first compound 0.3162 µM), 0.405; in the test with Everolimus + Decitabine (first compound 1 µM), 0.399.

With NCI-H2342, the relative viability was 0.48 with Everolimus + Palbociclib (first compound 0.01 µM); 0.407 with Everolimus + Palbociclib (first compound 0.03162 µM); 0.493 with Everolimus + Palbociclib (first compound 0.1 µM); 0.44 in the test with Everolimus + Palbociclib (first compound 0.3162 µM); 0.463 in the test with Everolimus + Palbociclib (first compound 1 µM); 0.436 with Everolimus + Phenformin (first compound 0.01 µM). In addition, the relative viability was found to be 0.34 in the test with Everolimus + Phenformin (first compound 0.03162 µM); 0.352 with Everolimus + Phenformin (first compound 0.1 µM); 0.411 with Everolimus + Phenformin (first compound 0.3162 µM); 0.49 with Everolimus + Phenformin (first compound 1 µM); 0.652 with Everolimus + Decitabine (first compound 0.01 µM); 0.534 in the test with Everolimus + Decitabine (first compound 0.03162 µM). In addition, the relative viability with Everolimus + Decitabine (first compound 0.1 µM) is 0.474; with Everolimus + Decitabine (first compound 0.3162 µM) it was 0.512; with Everolimus + Decitabine (first compound 1 µM), 0.537.

CAL-12T: the relative viability amounted to 0.461 with Everolimus + Palbociclib (first compound 0.01 µM); 0.236 in the test with Everolimus + Palbociclib (first compound 0.03162 µM); 0.152 in the test with Everolimus + Palbociclib (first compound 0.1 µM); 0.217 in the test with Everolimus + Palbociclib (first compound 0.3162 µM); 0.388 in the test with Everolimus + Palbociclib (first compound 1 µM); 0.324 with Everolimus + Pictilisib (first compound 0.01 µM). In addition, the relative viability with Everolimus + Pictilisib (first compound 0.03162 µM) was determined as 0.26; with Everolimus + Pictilisib (first compound 0.1 µM) it was 0.377; with Everolimus + Pictilisib (first compound 0.3162 µM), 0.287; with Everolimus + Pictilisib (first compound 1 µM) it was 0.304; with Everolimus + Phenformin (first compound 0.01 µM) it was 0.472; with Everolimus + Phenformin (first compound 0.03162 µM), 0.549. The relative viability is 0.356 with Everolimus + Phenformin (first compound 0.1 µM), 0.503 in the test with Everolimus + Phenformin (first compound 0.3162 µM) and 0.482 in the test with Everolimus + Phenformin (first compound 1 µM).
